Test results from patent US9113629B2, “4-amino-6-(4-substituted-phenyl)-picolinates and 6-amino-2-(4-substituted-phenyl)-pyrimidine-4-carboxylates and their use as herbicides” (DOW AGROSCIENCES LLC, priority 2013, dated 2015).
Like-named read-outs stand apart in the source and are kept apart here.

Key:
[1] = system: Key Broadleaf Weed and Crop Species; assay: Post-emergent Test II herbicidal activity (Table 5); type: in vivo; conditions: post-emergence, 336 h, 14 days after application; for pest or weed control at 70 g/ha: application rate 70 g ai/ha; for pest or weed control at 140 g/ha: application rate 140 g ai/ha
How it was run: (§1)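 Scoring: visual, 0–100% injury at 14 d versus untreated. Treatment: overhead track spray, 187 L/ha, onto plants at the first–second true leaf stage. Growth: greenhouse, ~15 h light, 23–29 °C day, 22–28 °C night.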

[2] = system: Key Grass and Sedge Weeds as well as Grass Crops; assay: Post-emergent Test II herbicidal activity (Table 6); type: in vivo; conditions: post-emergence, 336 h; for pest or weed control at 70 g/ha: 70 g ai/ha; for pest or weed control at 140 g/ha: 140 g ai/ha
How it was run: as §1

[3] = ABUTH: velvetleaf (Abutilon theophrasti), read-out: Visual Growth Reduction (%) 14 Days After Application, ABUTH
[4] = AMARE: redroot pigweed (Amaranthus retroflexus), read-out: Visual Growth Reduction (%) 14 Days After Application, AMARE
[5] = BRSNN: oilseed-rape, canola (Brassica napus), read-out: Visual Growth Reduction (%) 14 Days After Application, BRSNN
[6] = CHEAL: lambsquarters (Chenopodium album), read-out: Visual Growth Reduction (%) 14 Days After Application, CHEAL
[7] = EPHHL: wild poinsettia (Euphorbia heterophylla), read-out: Visual Growth Reduction (%) 14 Days After Application, EPHHL
[8] = HELAN: sunflower (Helianthus annuus), read-out: Visual Growth Reduction (%) 14 Days After Application, HELAN
[9] = VIOTR: wild pansy (Viola tricolor), read-out: Visual Growth Reduction (%) 14 Days After Application, VIOTR
[10] = CYPES: yellow nutsedge (Cyperus esculentus), read-out: Visual Growth Reduction (%) 14 Days After Application, CYPES
[11] = DIGSA: crabgrass (Digitaria sanguinalis), read-out: Visual Growth Reduction (%) 14 Days After Application, DIGSA
[12] = ECHCG: barnyardgrass (Echinochloa crus-galli), read-out: Visual Growth Reduction (%) 14 Days After Application, ECHCG
[13] = ORYSA: rice (Oryza sativa), crop, read-out: Visual Growth Reduction (%) 14 Days After Application, ORYSA
[14] = SETFA: giant foxtail (Setaria faberi), read-out: Visual Growth Reduction (%) 14 Days After Application, SETFA
[15] = SORVU: grain sorghum (Sorghum vulgare), read-out: Visual Growth Reduction (%) 14 Days After Application, SORVU
[16] = TRZSS (wheat, Triticum aestivum), crop, read-out: Visual Growth Reduction (%) 14 Days After Application, TRZSS
[17] = ZEAMX: maize, corn (Zea mays), crop, read-out: Visual Growth Reduction (%) 14 Days After Application, ZEAMX

## COC(=O)c1nc(-c2ccc(C(F)F)c(F)c2)cc(N)c1Cl [Compound 196]
[1]; [3]
  pest or weed control at 70 g/ha: 95 to 100%
  pest or weed control at 140 g/ha: 95 to 100%
[1]; [4]
  pest or weed control at 70 g/ha: 95 to 100%
  pest or weed control at 140 g/ha: 95 to 100%
[1]; [5]
  pest or weed control at 70 g/ha: 30 to 44%
  pest or weed control at 140 g/ha: 30 to 44%
[1]; [6]
  pest or weed control at 70 g/ha: 95 to 100%
  pest or weed control at 140 g/ha: 95 to 100%
[1]; [7]
  pest or weed control at 70 g/ha: 95 to 100%
  pest or weed control at 140 g/ha: 95 to 100%
[1]; [8]
  pest or weed control at 70 g/ha: 95 to 100%
  pest or weed control at 140 g/ha: 95 to 100%
[1]; [9]
  pest or weed control at 70 g/ha: 0 to 29%
  pest or weed control at 140 g/ha: 0 to 29%
[2]; [10]
  pest or weed control at 70 g/ha: 85 to 94%
  pest or weed control at 140 g/ha: 85 to 94%
[2]; [11]
  pest or weed control at 70 g/ha: 45 to 59%
  pest or weed control at 140 g/ha: 45 to 59%
[2]; [12]
  pest or weed control at 70 g/ha: 95 to 100%
  pest or weed control at 140 g/ha: 95 to 100%
[2]; [13]
  pest or weed control at 70 g/ha: 0 to 29%
  pest or weed control at 140 g/ha: 0 to 29%
[2]; [14]
  pest or weed control at 70 g/ha: 0 to 29%
  pest or weed control at 140 g/ha: 0 to 29%
[2]; [15]
  pest or weed control at 70 g/ha: 75 to 84%
  pest or weed control at 140 g/ha: 75 to 84%
[2]; [16]
  pest or weed control at 70 g/ha: 0 to 29%
  pest or weed control at 140 g/ha: 0 to 29%
[2]; [17]
  pest or weed control at 70 g/ha: 0 to 29%
  pest or weed control at 140 g/ha: 75 to 84%

## COC(=O)c1nc(-c2cccc(F)c2F)c(F)c(N)c1Cl [Compound 199]
[1]; [3]
  pest or weed control at 70 g/ha: 95 to 100%
  pest or weed control at 140 g/ha: 95 to 100%
[1]; [4]
  pest or weed control at 70 g/ha: 95 to 100%
  pest or weed control at 140 g/ha: 95 to 100%
[1]; [5]
  pest or weed control at 70 g/ha: 85 to 94%
  pest or weed control at 140 g/ha: 95 to 100%
[1]; [6]
  pest or weed control at 70 g/ha: 85 to 94%
  pest or weed control at 140 g/ha: 95 to 100%
[1]; [7]
  pest or weed control at 70 g/ha: 60 to 74%
  pest or weed control at 140 g/ha: 85 to 94%
[1]; [8]
  pest or weed control at 70 g/ha: 75 to 84%
  pest or weed control at 140 g/ha: 95 to 100%
[1]; [9]
  pest or weed control at 70 g/ha: 0 to 29%
  pest or weed control at 140 g/ha: 30 to 44%
[2]; [10]
  pest or weed control at 70 g/ha: 0 to 29%
  pest or weed control at 140 g/ha: 0 to 29%
[2]; [11]
  pest or weed control at 70 g/ha: 0 to 29%
  pest or weed control at 140 g/ha: 0 to 29%
[2]; [12]
  pest or weed control at 70 g/ha: 0 to 29%
  pest or weed control at 140 g/ha: 0 to 29%
[2]; [13]
  pest or weed control at 70 g/ha: 0 to 29%
  pest or weed control at 140 g/ha: 0 to 29%
[2]; [14]
  pest or weed control at 70 g/ha: 0 to 29%
  pest or weed control at 140 g/ha: 0 to 29%
[2]; [15]
  pest or weed control at 70 g/ha: 0 to 29%
  pest or weed control at 140 g/ha: 0 to 29%
[2]; [16]
  pest or weed control at 70 g/ha: 0 to 29%
  pest or weed control at 140 g/ha: 0 to 29%
[2]; [17]
  pest or weed control at 70 g/ha: 0 to 29%
  pest or weed control at 140 g/ha: 0 to 29%
